Source: paper PMC10461823, “ABCH2 transporter mediates deltamethrin uptake and toxicity in the malaria vector Anopheles coluzzii” (PLOS Pathogens, 2023)

Experiments:
[1] = target: T1, ABCH2 (Anopheles coluzzii, UniProt A0A6E8VHH0); assay: malachite green ATPase assay, Sf9 inverted membrane vesicles; assay type: biochemical; conditions: basal activity without deltamethrin, 1 mM ATP, MgCl2, Tris pH 8, 37 C, 15 min; empty-bacmid background subtracted
T1 construct: full ORF, codon-optimised for S. frugiperda, pFastBac1 baculovirus in Sf9 cells, untagged, membrane vesicles; about 85 kDa half-transporter, proposed homodimer
T1 sequence (A0A6E8VHH0 1-760): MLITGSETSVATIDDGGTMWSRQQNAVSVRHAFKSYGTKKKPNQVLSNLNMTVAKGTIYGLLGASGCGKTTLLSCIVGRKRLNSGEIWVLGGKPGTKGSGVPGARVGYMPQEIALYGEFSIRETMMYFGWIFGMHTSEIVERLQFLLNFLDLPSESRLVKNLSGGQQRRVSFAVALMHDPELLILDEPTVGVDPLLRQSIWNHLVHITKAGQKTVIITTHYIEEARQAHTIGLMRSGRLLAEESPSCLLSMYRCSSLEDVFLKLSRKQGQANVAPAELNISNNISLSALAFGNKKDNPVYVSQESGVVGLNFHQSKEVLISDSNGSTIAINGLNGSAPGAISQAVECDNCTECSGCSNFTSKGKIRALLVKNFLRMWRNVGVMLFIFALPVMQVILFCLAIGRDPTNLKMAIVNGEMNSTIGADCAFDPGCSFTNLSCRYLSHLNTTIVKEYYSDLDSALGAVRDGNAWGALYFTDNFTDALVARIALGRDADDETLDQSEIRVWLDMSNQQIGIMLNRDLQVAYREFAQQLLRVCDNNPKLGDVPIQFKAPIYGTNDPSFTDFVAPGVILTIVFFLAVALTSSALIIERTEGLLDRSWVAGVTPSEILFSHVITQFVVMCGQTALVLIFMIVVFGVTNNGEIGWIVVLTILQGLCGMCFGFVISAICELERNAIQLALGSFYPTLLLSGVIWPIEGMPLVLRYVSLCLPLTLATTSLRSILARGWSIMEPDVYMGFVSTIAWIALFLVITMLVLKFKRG

[2] = target: T1, ABCH2; assay: as above; assay type: biochemical; conditions: 120 uM deltamethrin, DMSO/ethanol, 1 mM ATP, MgCl2, Tris pH 8, 37 C, 15 min; empty-bacmid background subtracted; transport not shown directly
[3] = target: ABCH2 transporter (ATP-Binding Cassette transporter from the H family) of Anopheles coluzzii (Anopheles coluzzii)

**Q.** Which “malachite green ATPase assay, Sf9 inverted membrane vesicles” value [1] does the source give for `Nc1ncnc2c1ncn2[C@@H]1O[C@H](COP(=O)(O)OP(=O)(O)OP(=O)(O)O)[C@@H](O)[C@H]1O` [ATP] here?
**A.** Its value is “indicate an ATP hydrolysis specific to ABCH2 expression”.

**Q.** For `CC1(C)[C@H](C(=O)O[C@H](C#N)c2cccc(Oc3ccccc3)c2)[C@@H]1C=C(Br)Br` [deltamethrin], which “fold stimulation of basal ATPase activity at 120 uM” value [2] is on record?
**A.** Its value is ~ 1.6 fold.

**Q.** With “ABCH2 transporter (ATP-Binding Cassette transporter from the H family) of Anopheles coluzzii (natural protein)” as the compound, how does the estimated basal rate of ATP hydrolysis of ABCH2 in inverted membrane vesicles of Sf9 cells expressing ABCH2 on its own (pmoles Pi/pmol ABCH2/minute) [3] read?
**A.** The estimated basal rate of ATP hydrolysis of ABCH2 in inverted membrane vesicles of Sf9 cells expressing ABCH2 on its own (pmoles Pi/pmol ABCH2/minute) was 178.
